This is an account of results in patent US12521395B2, “Gem-disubstituted heterocyclic compounds and their use as IDH inhibitors” (NERVIANO MEDICAL SCIENCES S.R.L., priority 2019, dated 2026).

SMILES strings stand for the structures.

This test deals with IDH1^R132C (Homo sapiens, UniProt O75874, R132C). The test is described as follows: NADPH depletion assay (diaphorase/resazurin), IDH1 R132C. The format is biochemical. Particulars: IDH1^R132C 2 nM, alpha-ketoglutarate 0.14 mM; read-out: IDH1^R132C IC50. The method, then: IDH mutated enzyme activity converting alpha-ketoglutarate to 2-hydroxyglutaric acid is measured using a NADPH depletion assay. In the assay the remaining cofactor is measured at the end of the reaction with the addition of a catalytic excess of diaphorase and resazurin, to generate a fluorescent signal in proportion to the amount of NADPH remaining. IDH1 WT enzyme as well as mutated isoforms IDH1^R132H, IDH1^R132C, and IDH2^R172K enzymes are commercially available proteins (see e.g. Sino Biological, Abcam, Active Motif or Creative BioMart).
IDH1^R132C, sequence (O75874 whole entry R132C, canonical isoform): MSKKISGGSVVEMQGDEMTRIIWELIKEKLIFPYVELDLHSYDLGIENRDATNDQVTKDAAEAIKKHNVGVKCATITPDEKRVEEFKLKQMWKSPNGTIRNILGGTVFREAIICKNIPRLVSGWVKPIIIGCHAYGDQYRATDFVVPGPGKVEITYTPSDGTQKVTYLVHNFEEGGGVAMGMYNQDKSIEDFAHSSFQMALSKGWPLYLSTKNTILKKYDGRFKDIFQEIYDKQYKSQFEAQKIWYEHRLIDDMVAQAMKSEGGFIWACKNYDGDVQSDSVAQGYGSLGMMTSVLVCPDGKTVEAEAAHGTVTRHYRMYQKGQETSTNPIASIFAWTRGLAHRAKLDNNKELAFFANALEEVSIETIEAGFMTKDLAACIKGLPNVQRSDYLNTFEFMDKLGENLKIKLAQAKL
IDH1^R132H homodimer enzyme are diluted to 8 nM, in 10 μL of Assay Buffer (150 mM NaCl, 50 mM Tris-HCl pH 7.6, 10 mM MgCl2, 0.001% Triton X-100, 4 mM β-mercaptoethanol); 0.2 μL of test compound, previously serially diluted 1 to 3, >10 experimental points from 1 mM in DMSO, is added and the mixture is incubated for 15 minutes at room temperature. The reaction is started with the addition of 10 μL of Substrate Mix (12 μM NADPH, 3.4 mM alpha-ketoglutarate in Assay Buffer) and the mixture is incubated for 60 minutes at room temperature. The reaction is terminated with the addition of 5 μl of Detection Buffer (100 μg/mL diaphorase, 30 μM resazurin, in IX Assay Buffer), and is incubated for 15 minutes before reading on a ViewLux as platereader at Ex544/Em590.
Compounds are assayed for their activity against IDH1^R132C following the same assay as above with the following modifications: IDH1^R132C and alpha-ketoglutarate final concentrations in the Assay Buffer is 2 nM and 0.14 mM, respectively.
A general note: Alamar Blue is a resazurin reagent that responds to reducing activity.
Usually IC50 stands for the point on the concentration scale where inhibition reaches its midpoint. For the compound `C=CC(=O)N1CCN(C2(c3ccc([C@H](C)Nc4nc(NC)c5ccc(=O)n(C(C)C)c5n4)cc3)CCOCC2)CC1` [cpd 37, 2-{[(1S)-1-{4-[4-(4-acryloylpiperazin-1-yl)tetrahydro-2H-pyran-4-yl]phenyl}ethyl]amino}-4-(methylamino)-8-(propan-2-yl)pyrido[2,3-d]pyrimidin-7(8H)-one], the half-maximal inhibitory concentration (IC50) amounted to 991 nM.

In the case of `C=CC(=O)N1CCN(C2(c3ccc([C@@H](C)Nc4cc5c(ccc(=O)n5C(C)C)cn4)cc3)CCC(F)(F)CC2)CC1` [cpd 63, 7-{[(1R)-1-{4-[1-(4-acryloylpiperazin-1-yl)-4,4-difluorocyclohexyl]phenyl}ethyl]amino}-1-(propan-2-yl)-1,6-naphthyridin-2(1H)-one], the IC50 worked out at 55 nM.

On to `CC#CC(=O)N1CCN(C2(c3ccc([C@H](C)Nc4ncc5ccc(=O)n(C(C)C)c5n4)cc3)CCOCC2)CC1` [cpd 5, 2-{[(1S)-1-(4-{4-[4-(but-2-ynoyl)piperazin-1-yl]tetrahydro-2H-pyran-4-yl}phenyl)ethyl]amino}-8-(propan-2-yl)pyrido[2,3-d]pyrimidin-7(8H)-one], for which the IC50 came out at 1470 nM.

As for `CC(C)n1c(=O)ccc2cnc(N[C@@H](C)c3ccc(C4(N5CCN(C#N)CC5)CCOCC4)cc3)nc21` [cpd 65, 4-(4-{4-[(1S)-1-{[7-oxo-8-(propan-2-yl)-7,8-dihydropyrido[2,3-d]pyrimidin-2-yl]amino}ethyl]phenyl}tetrahydro-2H-pyran-4-yl)piperazine-1-carbonitrile], the IC50 is 305 nM.

In the case of `C=CC(=O)N1CCN(C2(c3ccc([C@H](C)Nc4nc(C)c5ccc(=O)n(C(C)C)c5n4)cc3)CCOCC2)CC1` [cpd 13, 2-{[(1S)-1-{4-[4-(4-acryloylpiperazin-1-yl)tetrahydro-2H-pyran-4-yl]phenyl}ethyl]amino}-4-methyl-8-(propan-2-yl) pyrido[2,3-d]pyrimidin-7(8H)-one], the IC50 came to 53.8 nM.

Regarding `C=CC(=O)NCCNC1(c2ccc([C@H](C)Nc3ncc4ccc(=O)n(C(C)C)c4n3)cc2)CCOCC1` [cpd 59, N-{2-[(4-{4-[(1S)-1-{[7-oxo-8-(propan-2-yl)-7,8-dihydropyrido[2,3-d]pyrimidin-2-yl]amino}ethyl]phenyl}tetrahydro-2H-pyran-4-yl)amino]ethyl}prop-2-enamide], the 50% inhibitory concentration (IC50) was found to be 151 nM.

`CC(C)n1c(=O)ccc2cnc(N[C@@H](C)c3ccc(C4(N5CCN(C(=O)C(O)CO)CC5)CCC(F)(F)CC4)cc3)cc21` (stereo partly drawn) [cpd 60, 7-{[(1S)-1-(4-{1-[4-(2,3-dihydroxypropanoyl)piperazin-1-yl]-4,4-difluorocyclohexyl}phenyl)ethyl]amino}-1-(propan-2-yl)-1,6-naphthyridin-2(1H)-one]: the half-maximal inhibitory concentration (IC50) is 71 nM.

With `CCN1CCN(C2(c3ccc([C@H](C)Nc4ncc5c(n4)N(CC)C(=O)OC5)cc3)CCOCC2)CC1` [cpd 45, 7-{[(1S)-1-{4-[4-(4-ethylpiperazin-1-yl)tetrahydro-2H-pyran-4-yl]phenyl}ethyl]amino}-1-ethyl-1,4-dihydro-2H-pyrimido[4,5-d][1,3]oxazin-2-one], the concentration for half-maximal inhibition (IC50) was determined as 1060 nM.

For `[2H]C([2H])([2H])C([2H])(n1c(=O)ccc2cnc(N[C@@H](C)c3ccc(C4(N5CCN(C(=O)C=C)CC5)CCOCC4)cc3)nc21)C([2H])([2H])[2H]` [cpd 55, 2-{[(1S)-1-{4-[4-(4-acryloylpiperazin-1-yl)tetrahydro-2H-pyran-4-yl]phenyl}ethyl]amino}-8-[(^2H7)propan-2-yl]pyrido[2,3-d]pyrimidin-7(8H)-one], the concentration for half-maximal inhibition (IC50) came to 11 nM.

As to `C=CC(=O)N1CCN(C2(c3ccc([C@H](C)Nc4ncc5ccc(=O)n(C(C)C)c5n4)nc3)CCOCC2)CC1` [cpd 27, 2-{[(1S)-1-{5-[4-(4-acryloylpiperazin-1-yl)tetrahydro-2H-pyran-4-yl]pyridin-2-yl}ethyl]amino}-8-(propan-2-yl)pyrido[2,3-d]pyrimidin-7(8H)-one], the half-inhibitory concentration (IC50) was found to be 98 nM.

`C=C(C)C(=O)N1CCN(C2(c3ccc([C@H](C)Nc4ncc5ccc(=O)n(C(C)C)c5n4)cc3)CCOCC2)CC1` [cpd 21, 2-{[(1S)-1-(4-{4-[4-(2-methylacryloyl)piperazin-1-yl]tetrahydro-2H-pyran-4-yl}phenyl)ethyl]amino}-8-(propan-2-yl) pyrido[2,3-d]pyrimidin-7(8H)-one]: the IC50 amounted to 904 nM.

In the case of `C=CC(=O)N1CCN(C2(c3ccc(CNc4ncc5ccc(=O)n(C(C)C)c5n4)cc3)CCOCC2)CC1` [cpd 31, 2-({4-[4-(4-acryloylpiperazin-1-yl)tetrahydro-2H-pyran-4-yl]benzyl}amino)-8-(propan-2-yl)pyrido[2,3-d]pyrimidin-7(8H)-one], the half-maximal inhibitory concentration (IC50) was 332 nM.

For the compound `C=CC(=O)N[C@H](C)C(=O)NC1(c2ccc([C@H](C)Nc3ncc4ccc(=O)n(C(C)C)c4n3)cc2)CCC(F)(F)CC1` [cpd 57, N2-acryloyl-N-(4,4-difluoro-1-{4-[(1S)-1-{[7-oxo-8-(propan-2-yl)-7,8-dihydropyrido[2,3-d]pyrimidin-2-yl]amino}ethyl]phenyl}cyclohexyl)-D-alaninamide], the IC50 stood at 533 nM.

In the case of `C=CC(=O)N1CCN(C2(c3ccc([C@H](C)Nc4nc(N(C)C)c5ccc(=O)n(C(C)C)c5n4)cc3)CCOCC2)CC1` [cpd 36, 2-{[(1S)-1-{4-[4-(4-acryloylpiperazin-1-yl)tetrahydro-2H-pyran-4-yl]phenyl}ethyl]amino}-4-(dimethylamino)-8-(propan-2-yl)pyrido[2,3-d]pyrimidin-7(8H)-one], the IC50 turned out to be 988 nM.

Take `C=CC(=O)N1CCN(C2(c3ccc([C@H](C)Nc4ncc5c(C)cc(=O)n(C(C)C)c5n4)cc3)CCOCC2)CC1` [cpd 18, 2-{[(1S)-1-{4-[4-(4-acryloylpiperazin-1-yl)tetrahydro-2H-pyran-4-yl]phenyl}ethyl]amino}-5-methyl-8-(propan-2-yl) pyrido[2,3-d]pyrimidin-7(8H)-one]: the IC50 is 24 nM.

With `C=CC(=O)N1CCN(C2(c3ccc([C@H](C)Nc4ncc5ccc(=O)n(C(C)C)c5n4)cc3)CCN(C)CC2)CC1` [cpd 32, 2-{[(1S)-1-{4-[4-(4-acryloylpiperazin-1-yl)-1-methylpiperidin-4-yl]phenyl}ethyl]amino}-8-(propan-2-yl)pyrido[2,3-d]pyrimidin-7(8H)-one], the IC50 was 64 nM.

As to `C=CC(=O)N1CCN(C2(c3ccc([C@H](C)Nc4ncc5ccc(=O)n(C(CC)CC)c5n4)cc3)CCOCC2)CC1` [cpd 35, 2-{[(1S)-1-{4-[4-(4-acryloylpiperazin-1-yl)tetrahydro-2H-pyran-4-yl]phenyl}ethyl]amino}-8-(pentan-3-yl)pyrido[2,3-d]pyrimidin-7(8H)-one], the IC50 is 4 nM.

With `C=CC(=O)NCC(=O)NC1(c2ccc([C@H](C)Nc3ncc4ccc(=O)n(C(C)C)c4n3)cc2)CCC(F)(F)CC1` [cpd 56, N-{2-[(4,4-difluoro-1-{4-[(1S)-1-{[7-oxo-8-(propan-2-yl)-7,8-dihydropyrido[2,3-d]pyrimidin-2-yl]amino}ethyl]phenyl}cyclohexyl)amino]-2-oxoethyl}prop-2-enamide], the IC50 was found to be 321 nM.

With `C=CC(=O)N1CC(N(C)C2(c3ccc([C@H](C)Nc4cc5c(ccc(=O)n5C(C)C)cn4)cc3)CCC(F)(F)CC2)C1` [cpd 61, 7-{[(1S)-1-(4-{1-[(1-acryloylazetidin-3-yl)(methyl)amino]-4,4-difluorocyclohexyl}phenyl)ethyl]amino}-1-(propan-2-yl)-1,6-naphthyridin-2(1H)-one], the 50% inhibitory concentration (IC50) came out at 6 nM.

On to `C=CC(=O)NCCN(C(=O)C(F)(F)F)C1(c2ccc([C@H](C)Nc3ncc4ccc(=O)n(C(C)C)c4n3)cc2)CCOCC1` [cpd 66, N-{2-[(4-{4-[(1S)-1-{[7-oxo-8-(propan-2-yl)-7,8-dihydropyrido[2,3-d]pyrimidin-2-yl]amino}ethyl]phenyl}tetrahydro-2H-pyran-4-yl)(trifluoroacetyl)amino]ethyl}prop-2-enamide], for which the IC50 was 75 nM.

Consider `C=CC(=O)N1CCN(C(C)(CC)c2ccc([C@H](C)Nc3ncc4ccc(=O)n(C(C)C)c4n3)cc2)CC1` (stereo partly drawn) [cpd 46, 2-{[(1S)-1-{4-[2-(4-acryloylpiperazin-1-yl)butan-2-yl]phenyl}ethyl]amino}-8-(propan-2-yl)pyrido[2,3-d]pyrimidin-7(8H)-one], for which the IC50 worked out at 13 nM.

As for `C=C(F)C(=O)N1CCN(C2(c3ccc([C@H](C)Nc4ncc5ccc(=O)n(C(C)C)c5n4)cc3)CCOCC2)CC1` [cpd 54, 2-{[(1S)-1-(4-{4-[4-(2-fluoroacryloyl)piperazin-1-yl]tetrahydro-2H-pyran-4-yl}phenyl)ethyl]amino}-8-(propan-2-yl) pyrido[2,3-d]pyrimidin-7(8H)-one], the concentration for half-maximal inhibition (IC50) was determined as 928 nM.

As for `CCC(=O)N1CCN(C2(c3ccc([C@H](C)Nc4cc5c(ccc(=O)n5C(C)C)cn4)cc3)CCC(F)(F)CC2)CC1` [cpd 67, 7-{[(1S)-1-{4-[4,4-difluoro-1-(4-propanoylpiperazin-1-yl)cyclohexyl]phenyl}ethyl]amino}-1-(propan-2-yl)-1,6-naphthyridin-2(1H)-one], the concentration for half-maximal inhibition (IC50) turned out to be 32 nM.
